Measurements taken from patent US20140243334A1, “SUBSTITUTED HYDOXAMIC ACIDS AND USES THEREOF” (Millennium Pharmaceuticals, Inc., priority 2010, published 2014).

Target: T1, purified human HDAC6 (Homo sapiens, UniProt Q9UBN7)
T1 construct: purchased BPS Bioscience 5006
T1 sequence (Q9UBN7 1-1215): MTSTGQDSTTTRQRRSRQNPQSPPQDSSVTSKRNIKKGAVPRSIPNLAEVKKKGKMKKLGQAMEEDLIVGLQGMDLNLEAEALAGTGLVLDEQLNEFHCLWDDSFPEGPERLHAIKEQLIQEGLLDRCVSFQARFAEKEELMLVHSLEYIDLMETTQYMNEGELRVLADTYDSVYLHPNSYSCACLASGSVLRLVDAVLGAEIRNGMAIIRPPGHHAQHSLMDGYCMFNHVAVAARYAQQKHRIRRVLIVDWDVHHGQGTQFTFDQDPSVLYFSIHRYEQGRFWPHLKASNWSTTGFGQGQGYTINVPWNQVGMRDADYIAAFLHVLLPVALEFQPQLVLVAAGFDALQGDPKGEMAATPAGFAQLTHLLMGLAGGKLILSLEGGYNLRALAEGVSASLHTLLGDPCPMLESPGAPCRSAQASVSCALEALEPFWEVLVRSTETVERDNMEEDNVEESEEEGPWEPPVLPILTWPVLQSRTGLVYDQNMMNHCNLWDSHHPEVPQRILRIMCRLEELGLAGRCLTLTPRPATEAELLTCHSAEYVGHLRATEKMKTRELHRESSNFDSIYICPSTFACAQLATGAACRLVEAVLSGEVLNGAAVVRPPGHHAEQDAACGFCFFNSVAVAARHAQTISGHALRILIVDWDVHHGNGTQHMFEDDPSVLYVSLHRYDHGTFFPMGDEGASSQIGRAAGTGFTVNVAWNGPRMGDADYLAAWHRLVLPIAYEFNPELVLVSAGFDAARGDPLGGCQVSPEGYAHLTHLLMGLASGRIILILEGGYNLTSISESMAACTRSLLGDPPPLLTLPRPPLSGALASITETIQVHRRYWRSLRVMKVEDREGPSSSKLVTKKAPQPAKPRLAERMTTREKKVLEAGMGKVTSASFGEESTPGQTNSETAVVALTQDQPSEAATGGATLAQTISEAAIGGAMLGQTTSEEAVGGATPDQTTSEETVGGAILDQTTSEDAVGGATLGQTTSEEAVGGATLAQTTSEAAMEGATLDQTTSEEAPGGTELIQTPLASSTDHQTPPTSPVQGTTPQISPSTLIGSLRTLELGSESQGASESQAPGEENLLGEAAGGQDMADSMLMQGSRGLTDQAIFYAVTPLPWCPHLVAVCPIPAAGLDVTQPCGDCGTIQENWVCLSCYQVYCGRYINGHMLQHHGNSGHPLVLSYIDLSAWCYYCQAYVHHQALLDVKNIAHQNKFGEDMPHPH
Experiment: HDAC6 Enzyme Assay
Assay type: biochemical
Conditions: HDAC6 inhibition at a compound concentration of 0.412 μM; read-out: Percent Inhibition at 0.412 μM
Experimental: To measure the inhibition of HDAC6 activity, purified human HDAC6 (BPS Bioscience; Cat. No. 5006) is incubated with substrate Ac-Arg-Gly-Lys(Ac)-AMC peptide (Bachem Biosciences; Cat. No. I-1925) for 1 hour at 30° C. in the presence of test compounds or vehicle DMSO control. The reaction is stopped with the HDAC inhibitor trichostatin A (Sigma; Cat. No. T8552) and the amount of Arg-Gly-Lys-AMC generated is quantitated by digestion with trypsin (Sigma; Cat. No. T1426) and subsequent measurement of the amount of AMC released using a fluorescent plate reader (Pherastar; BMG Technologies) set at Ex 340 nm and Em 460 nm. Concentration response curves are generated by calculating the fluorescence increase in test compound-treated samples relative to DMSO-treated controls, and enzyme inhibition (IC50) values are determined from those curves.

| Structure (SMILES) | inhibition at 0.412 µM |
| --- | --- |
| O=C(NO)C1CCc2ccc(-c3cnc4[nH]ccc4c3)cc2C1 (centres unmarked) [Compound I-87, N-hydroxy-7-(1H-pyrrolo[2,3-b]pyridin-5-yl)-1,2,3,4-tetrahydronaphthalene-2-carboxamide] | 85% |
| O=C(NO)C1CCc2ccc(Oc3cccc(Cl)c3)cc2C1 (centres unmarked) [Compound I-9, 7-(3-chlorophenoxy)-N-hydroxy-1,2,3,4-tetrahydronaphthalene-2-carboxamide] | 74% |
| O=C(NO)C1CCc2ccc(Oc3ccncc3)cc2C1 (centres unmarked) [Compound I-12, N-hydroxy-7-(pyridin-4-yloxy)-1,2,3,4-tetrahydronaphthalene-2-carboxamide] | 61% |
| NC(=O)c1ccc2c(c1)CC(C(=O)NO)CC2 (centres unmarked) [Compound I-39, N^2-hydroxy-1,2,3,4-tetrahydronaphthalene-2,7-dicarboxamide] | 76% |
| O=C(NO)C1CCc2ccc(CCc3ccccc3)cc2C1 (centres unmarked) [Compound I-36, N-hydroxy-7-(2-phenylethyl)-1,2,3,4-tetrahydronaphthalene-2-carboxamide] | 37% |
| COc1ccc(-c2ccc3c(c2)CC(C(=O)NO)CC3)cc1 (centres unmarked) [Compound I-69, N-hydroxy-7-(4-methoxyphenyl)-1,2,3,4-tetrahydronaphthalene-2-carboxamide] | 79% |
| O=C(NO)C1CCc2ccc(-c3c[nH]c4ccccc34)cc2C1 (centres unmarked) [Compound I-82, N-hydroxy-7-(1H-indol-3-yl)-1,2,3,4-tetrahydronaphthalene-2-carboxamide] | 83% |
| O=C(NO)C1CCc2ccc(-c3cccc(OCc4ccccc4)c3)cc2C1 (centres unmarked) [Compound I-48, 7-[3-(benzyloxy)phenyl]-N-hydroxy-1,2,3,4-tetrahydronaphthalene-2-carboxamide] | 73% |
| COc1cccc(Nc2ccc3c(c2)CCC(C(=O)NO)C3)c1 (centres unmarked) [Compound I-79, N-hydroxy-6-[(3-methoxyphenyl)amino]-1,2,3,4-tetrahydronaphthalene-2-carboxamide] | 43% |
| CC(C)(C)OC(=O)Nc1ccc(Oc2ccc3c(c2)CC(C(=O)NO)CC3)cc1 (centres unmarked) [Compound I-52, tert-butyl [4-({7-[(hydroxyamino)carbonyl]-5,6,7,8-tetrahydronaphthalen-2-yl}oxy)phenyl]carbamate] | 74% |
| CC(C)(C)NC(=O)c1ccc2c(c1)CC(C(=O)NO)CC2 (centres unmarked) [Compound I-45, N^7-(tert-butyl)-N^2-hydroxy-1,2,3,4-tetrahydronaphthalene-2,7-dicarboxamide] | 79% |
| O=C(NO)C1CCc2cc(Oc3ccccc3)ccc2C1 (centres unmarked) [Compound I-25, N-hydroxy-6-phenoxy-1,2,3,4-tetrahydronaphthalene-2-carboxamide] | 27% |
| COc1ccc(Nc2ccc3c(c2)CCC(C(=O)NO)C3)cc1 (centres unmarked) [Compound I-80, N-hydroxy-6-[(4-methoxyphenyl)amino]-1,2,3,4-tetrahydronaphthalene-2-carboxamide] | 43% |
| CC(C)(C)OC(=O)Nc1cccc(-c2ccc3c(c2)CC(C(=O)NO)CC3)c1 (centres unmarked) [Compound I-62, tert-butyl (3-{7-[(hydroxyamino)carbonyl]-5,6,7,8-tetrahydronaphthalen-2-yl}phenyl)carbamate] | 82% |
| COc1ccccc1-c1ccc2c(c1)CC(C(=O)NO)CC2 (centres unmarked) [Compound I-68, N-hydroxy-7-(2-methoxyphenyl)-1,2,3,4-tetrahydronaphthalene-2-carboxamide] | 76% |
| O=C(NO)C1CCc2ccc(Oc3ccc(NC(=O)C4CC4)cc3)cc2C1 (centres unmarked) [Compound I-56, 7-{4-[(cyclopropylcarbonyl)amino]phenoxy}-N-hydroxy-1,2,3,4-tetrahydronaphthalene-2-carboxamide] | 82% |
| CC(C)c1cccc(Oc2ccc3c(c2)CC(C(=O)NO)CC3)c1 (centres unmarked) [Compound I-47, N-hydroxy-7-(3-isopropylphenoxy)-1,2,3,4-tetrahydronaphthalene-2-carboxamide] | 74% |
| COc1ccc2c(c1)CCC(C(=O)NO)C2 (centres unmarked) [Compound I-10, N-hydroxy-6-methoxy-1,2,3,4-tetrahydronaphthalene-2-carboxamide] | 32% |
| CC(C)(C)OC(=O)Nc1ccc2c(c1)CC(C(=O)NO)CC2 (centres unmarked) [Compound I-20, tert-butyl {7-[(hydroxyamino)carbonyl]-5,6,7,8-tetrahydronaphthalen-2-yl}carbamate] | 61% |
| O=C(NO)C1CCc2ccc(-c3cccc(NC(=O)C4CC4)c3)cc2C1 (centres unmarked) [Compound I-64, 7-{3-[(cyclopropylcarbonyl)amino]phenyl}-N-hydroxy-1,2,3,4-tetrahydronaphthalene-2-carboxamide] | 90% |
| COc1ccc(C(=O)Nc2ccc3c(c2)CC(C(=O)NO)CC3)cc1 (centres unmarked) [Compound I-29, N-hydroxy-7-[(4-methoxybenzoyl)amino]-1,2,3,4-tetrahydronaphthalene-2-carboxamide] | 81% |

Second part, the molecule after the results:

| inhibition at 0.412 µM | Structure (SMILES) |
| --- | --- |
| 61% | N#Cc1cc(-c2ccc3c(c2)CC(C(=O)NO)CC3)ccc1F (centres unmarked) [Compound I-105, 7-(3-cyano-4-fluorophenyl)-N-hydroxy-1,2,3,4-tetrahydronaphthalene-2-carboxamide] |
| 62% | CCCc1ccc(-c2ccc3c(c2)CC(C(=O)NO)CC3)cc1 (centres unmarked) [Compound I-94, N-hydroxy-7-(4-propylphenyl)-1,2,3,4-tetrahydronaphthalene-2-carboxamide] |
| 84% | CNC(=O)c1cc(F)cc(-c2ccc3c(c2)CC(C(=O)NO)CC3)c1 (centres unmarked) [Compound I-100, 7-{3-fluoro-5-[(methylamino)carbonyl]phenyl}-N-hydroxy-1,2,3,4-tetrahydronaphthalene-2-carboxamide] |
| 67% | CN(C)c1ccc(-c2ccc3c(c2)CC(C(=O)NO)CC3)cc1 (centres unmarked) [Compound I-92, 7-[4-(dimethylamino)phenyl]-N-hydroxy-1,2,3,4-tetrahydronaphthalene-2-carboxamide] |
| 69% | O=C(NO)C1CCc2ccc(-c3ccc(F)c(Cl)c3)cc2C1 (centres unmarked) [Compound I-119, 7-(3-chloro-4-fluorophenyl)-N-hydroxy-1,2,3,4-tetrahydronaphthalene-2-carboxamide] |
| 79% | CN(C)S(=O)(=O)c1cccc(-c2ccc3c(c2)CC(C(=O)NO)CC3)c1 (centres unmarked) [Compound I-93, 7-{3-[(dimethylamino)sulfonyl]phenyl}-N-hydroxy-1,2,3,4-tetrahydronaphthalene-2-carboxamide] |
| 78% | Cc1ccc(-c2ccc3c(c2)CC(C(=O)NO)CC3)c2ccccc12 (centres unmarked) [Compound I-98, N-hydroxy-4-methyl-5′,6′,7′,8′-tetrahydro-1,2′-binaphthalene-7′-carboxamide] |
| 75% | CN(C)C(=O)c1ccc(-c2ccc3c(c2)CC(C(=O)NO)CC3)cc1F (centres unmarked) [Compound I-108, 7-{4-[(dimethylamino)carbonyl]-3-fluorophenyl}-N-hydroxy-1,2,3,4-tetrahydronaphthalene-2-carboxamide] |
| 83% | CN(C)C(=O)c1cc(-c2ccc3c(c2)CC(C(=O)NO)CC3)ccc1Cl (centres unmarked) [Compound I-115, 7-{4-chloro-3-[(dimethylamino)carbonyl]phenyl}-N-hydroxy-1,2,3,4-tetrahydronaphthalene-2-carboxamide] |
| 34% | CC(C)Cc1ccc(-c2ccc3c(c2)CC(C(=O)NO)CC3)cc1 (centres unmarked) [Compound I-122, N-hydroxy-7-(4-isobutylphenyl)-1,2,3,4-tetrahydronaphthalene-2-carboxamide] |
| 76% | Cc1cc(F)ccc1-c1ccc2c(c1)CC(C(=O)NO)CC2 (centres unmarked) [Compound I-102, 7-(4-fluoro-2-methylphenyl)-N-hydroxy-1,2,3,4-tetrahydronaphthalene-2-carboxamide] |
